Values of other authors in patent US20160317662A1, “STABLE ORAL PHARMACEUTICAL COMPOSITION” (H[…].A., priority 2013, published 2016).

Details: aqueous solutions; state of the art

COc1ccc2c3c1O[C@H]1[C@@H](O)C=C[C@H]4C(C2)N(C)CC[C@@]341 [codeine, codein phosphate hemihydrate]
pH around which solutions are relatively stable: ~3.5
